Data: ChEMBL document CHEMBL4411322 (J Med Chem, 2019)
Calls of active or inactive are those of the source. No cut-off for these calls is given here. Non-standard residues stand in square brackets, D forms with d. Residues, ends and D or L forms follow the SMILES beside them. Groups on a side chain read outwards from the residue. *: point of attachment. BODIPY(FL) = CC1=CC(C)=[N+]2C1=Cc1ccc(CCC(=O)*)n1[B-]2(F)F; NMeK = CN[C@@H](CCCCN)C(=O)O; Ahx = NCCCCCC(=O)O

How the values were obtained:
[1] = Stability in 90% human serum assessed as drug degradation at 1 mM after 15 mins by HPLC analysis; format: ADME, cell-free; conditions: read-out: Drug degradation
[2] = Stability in 90% human serum assessed as drug degradation at 1 mM after 60 mins by HPLC analysis; format: ADME, cell-free; conditions: read-out: Drug degradation
[3] = biological target: Integrin alpha-V/beta-6 (Homo sapiens, UniProt P06756+P18564); experiment: Inhibition of LAP binding to human integrin alphavbeta6 receptor after 1 hr by solid-phase binding assay; format: protein-complex assay; conditions: read-out: IC50
[4] = biological target: T1, Integrin alpha-V/beta-8 (Homo sapiens, UniProt P06756+P26012); experiment: Inhibition of LAP binding to human integrin alphavbeta8 receptor after 1 hr by solid-phase binding assay; format: protein-complex assay; conditions: read-out: IC50
Target sequence in this assay (P06756 31-889 limits assumed): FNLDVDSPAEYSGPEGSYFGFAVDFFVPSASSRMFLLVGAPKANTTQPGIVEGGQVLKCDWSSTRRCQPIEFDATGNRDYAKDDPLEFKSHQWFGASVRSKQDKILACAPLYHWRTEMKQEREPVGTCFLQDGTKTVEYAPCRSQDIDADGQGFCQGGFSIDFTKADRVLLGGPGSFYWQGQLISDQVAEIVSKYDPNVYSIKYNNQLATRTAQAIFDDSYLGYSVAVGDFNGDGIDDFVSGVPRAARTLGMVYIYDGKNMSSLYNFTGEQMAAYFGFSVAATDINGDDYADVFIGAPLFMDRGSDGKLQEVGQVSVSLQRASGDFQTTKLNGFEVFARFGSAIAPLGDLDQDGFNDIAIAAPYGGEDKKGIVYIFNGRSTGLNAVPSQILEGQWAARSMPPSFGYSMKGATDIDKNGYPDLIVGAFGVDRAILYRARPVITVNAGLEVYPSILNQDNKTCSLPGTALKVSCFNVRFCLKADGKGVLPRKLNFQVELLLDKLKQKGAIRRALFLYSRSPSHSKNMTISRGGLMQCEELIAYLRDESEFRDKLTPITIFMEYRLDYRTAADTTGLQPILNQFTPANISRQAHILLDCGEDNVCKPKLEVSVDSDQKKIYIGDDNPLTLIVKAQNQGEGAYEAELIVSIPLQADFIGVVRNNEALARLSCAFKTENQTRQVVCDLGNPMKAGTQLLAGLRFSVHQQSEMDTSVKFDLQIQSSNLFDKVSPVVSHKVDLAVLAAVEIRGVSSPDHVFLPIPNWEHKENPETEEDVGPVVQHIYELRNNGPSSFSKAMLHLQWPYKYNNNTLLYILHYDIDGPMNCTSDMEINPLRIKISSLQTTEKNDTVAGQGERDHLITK
Target sequence in this assay (P06756 891-1048 limits assumed): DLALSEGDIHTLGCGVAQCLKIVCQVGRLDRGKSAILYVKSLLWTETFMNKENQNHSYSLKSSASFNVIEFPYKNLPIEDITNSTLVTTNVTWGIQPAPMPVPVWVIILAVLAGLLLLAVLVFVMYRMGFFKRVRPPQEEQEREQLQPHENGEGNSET
Target sequence in this assay (P26012 43-769 limits assumed): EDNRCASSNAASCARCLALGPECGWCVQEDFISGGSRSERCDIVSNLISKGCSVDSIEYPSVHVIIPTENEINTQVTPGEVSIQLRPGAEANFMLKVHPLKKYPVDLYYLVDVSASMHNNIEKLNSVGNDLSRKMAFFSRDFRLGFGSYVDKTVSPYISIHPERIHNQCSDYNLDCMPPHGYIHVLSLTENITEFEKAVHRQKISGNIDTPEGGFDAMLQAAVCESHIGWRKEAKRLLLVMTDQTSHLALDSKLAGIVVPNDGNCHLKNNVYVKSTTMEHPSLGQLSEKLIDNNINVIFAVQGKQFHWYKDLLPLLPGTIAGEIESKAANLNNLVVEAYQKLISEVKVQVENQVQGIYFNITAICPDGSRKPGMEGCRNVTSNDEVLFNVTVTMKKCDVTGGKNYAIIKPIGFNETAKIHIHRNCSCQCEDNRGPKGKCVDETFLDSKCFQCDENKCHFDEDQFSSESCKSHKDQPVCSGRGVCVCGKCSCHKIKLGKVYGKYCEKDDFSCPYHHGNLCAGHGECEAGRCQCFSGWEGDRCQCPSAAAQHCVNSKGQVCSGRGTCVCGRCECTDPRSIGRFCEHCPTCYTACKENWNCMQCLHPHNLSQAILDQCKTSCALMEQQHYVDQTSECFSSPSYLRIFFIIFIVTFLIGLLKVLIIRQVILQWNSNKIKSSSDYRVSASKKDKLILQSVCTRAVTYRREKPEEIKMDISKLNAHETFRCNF

[5] = species: Homo sapiens; experiment: Selectivity ratio of IC50 for human integrin alphavbeta6 receptor to IC50 for human integrin alphavbeta8 receptor
[6] = biological target: Integrin alpha-V/beta-5 (Homo sapiens, UniProt P06756+P18084); experiment: Inhibition of human vitronectin binding to human integrin alphavbeta5 receptor after 1 hr by solid-phase binding assay; format: protein-complex assay
[7] = biological target: Integrin alpha-IIb/beta-3 (Homo sapiens, UniProt P05106+P08514); experiment: Inhibition of human fibrinogen binding to human platelet integrin alpha2b-beta3 receptor after 1 hr by solid-phase binding assay
[8] = biological target: Integrin alpha-V/beta-3 (Homo sapiens, UniProt P05106+P06756); experiment: Inhibition of human vitronectin binding to human integrin alphavbeta3 receptor after 1 hr by solid-phase binding assay; format: protein-complex assay
[9] = biological target: Integrin alpha-5/beta-1 (Homo sapiens, UniProt P05556+P08648); experiment: Inhibition of human fibronectin binding to human integrin alpha5beta1 receptor after 1 hr by solid-phase binding assay; format: protein-complex assay
[10] = biological target: T1, Integrin alpha-V/beta-8; experiment: Binding affinity to alphavbeta8 in human REC cells assessed as fluorescence intensity at 10 uM after 1 hr using BDP FL-labeled compound by immunocytochemical analysis; format: cell-based
[11] = biological target: T1, Integrin alpha-V/beta-8; experiment: Binding affinity to alphavbeta8 in human BHY cells assessed as fluorescence intensity at 10 uM after 1 hr using BDP FL-labeled compound by immunocytochemical analysis; format: cell-based
[12] = biological target: T1, Integrin alpha-V/beta-8; experiment: Binding affinity to alphavbeta8 in human HN cells assessed as fluorescence intensity at 10 uM after 1 hr using BDP FL-labeled compound by immunocytochemical analysis; format: cell-based
[13] = biological target: T1, Integrin alpha-V/beta-8; experiment: Binding affinity to alphavbeta8 in TGF-beta1 stimulated human REC cells assessed as fluorescence intensity at 10 uM after 1 hr using fluorescence-labeled compound by immunocytochemical analysis
[14] = biological target: T1, Integrin alpha-V/beta-8; experiment: Binding affinity to alphavbeta8 in TGF-beta1 stimulated human BHY cells assessed as fluorescence intensity at 10 uM after 1 hr using fluorescence-labeled compound in presence of 10 molar excess peptide 2 by immunocytochemical analysis; format: cell-based
[15] = biological target: T1, Integrin alpha-V/beta-8; experiment: Binding affinity to alphavbeta8 in TGF-beta1 stimulated human HN cells assessed as fluorescence intensity at 10 uM after 1 hr using in presence of 10 to 20 molar excess peptide 2 by immunocytochemical analysis relative to control
[16] = biological target: T1, Integrin alpha-V/beta-8; experiment: Binding affinity to alphavbeta8 in TGF-beta1 stimulated human BHY cells assessed as fluorescence intensity at 10 uM after 1 hr using fluorescence-labeled compound in presence of 10 molar excess peptide 1a by immunocytochemical analysis; format: cell-based
[17] = biological target: T1, Integrin alpha-V/beta-8; experiment: Binding affinity to alphavbeta8 in TGF-beta1 stimulated human BHY cells assessed as fluorescence intensity at 10 uM after 1 hr using in presence of 5 to 100 molar excess peptide 1a by immunocytochemical analysis relative to control; format: cell-based
[18] = Stability in 90% human serum assessed as drug degradation at 1 mM after 180 mins by HPLC analysis; format: ADME, cell-free; conditions: 3 h, 1000 µM

Sequence of Integrin alpha-V/beta-5 (P06756 31-889 limits assumed): as the sequence (P06756 31-889 limits assumed) above
Sequence of Integrin alpha-V/beta-5 (P06756 891-1048 limits assumed): as the sequence (P06756 891-1048 limits assumed) above
Sequence of Integrin alpha-V/beta-5 (P18084 24-799 limits assumed): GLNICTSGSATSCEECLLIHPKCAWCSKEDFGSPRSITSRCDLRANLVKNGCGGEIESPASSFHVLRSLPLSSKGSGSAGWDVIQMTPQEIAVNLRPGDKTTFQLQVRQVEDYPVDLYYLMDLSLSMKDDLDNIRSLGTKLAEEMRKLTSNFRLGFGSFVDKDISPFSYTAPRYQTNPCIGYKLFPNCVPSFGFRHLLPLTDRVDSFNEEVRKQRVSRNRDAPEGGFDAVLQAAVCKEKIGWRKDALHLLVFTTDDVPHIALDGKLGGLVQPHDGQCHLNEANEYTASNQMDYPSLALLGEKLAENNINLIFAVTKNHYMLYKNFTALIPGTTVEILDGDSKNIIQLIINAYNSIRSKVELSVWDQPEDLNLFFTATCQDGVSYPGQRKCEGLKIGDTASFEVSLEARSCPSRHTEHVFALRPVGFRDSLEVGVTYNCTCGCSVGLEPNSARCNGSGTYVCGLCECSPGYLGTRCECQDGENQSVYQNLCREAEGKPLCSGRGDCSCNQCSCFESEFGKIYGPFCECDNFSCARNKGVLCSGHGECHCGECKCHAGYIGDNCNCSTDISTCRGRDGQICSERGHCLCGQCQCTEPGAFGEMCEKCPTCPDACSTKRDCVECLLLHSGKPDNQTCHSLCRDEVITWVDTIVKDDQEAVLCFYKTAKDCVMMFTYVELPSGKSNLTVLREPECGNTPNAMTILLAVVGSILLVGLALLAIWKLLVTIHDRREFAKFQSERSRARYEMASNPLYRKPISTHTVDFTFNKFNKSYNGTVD
Sequence of Integrin alpha-V/beta-6 (P06756 31-889 limits assumed): as the sequence (P06756 31-889 limits assumed) above
Sequence of Integrin alpha-V/beta-6 (P06756 891-1048 limits assumed): as the sequence (P06756 891-1048 limits assumed) above
Sequence of Integrin alpha-V/beta-6 (P18564 22-788 limits assumed): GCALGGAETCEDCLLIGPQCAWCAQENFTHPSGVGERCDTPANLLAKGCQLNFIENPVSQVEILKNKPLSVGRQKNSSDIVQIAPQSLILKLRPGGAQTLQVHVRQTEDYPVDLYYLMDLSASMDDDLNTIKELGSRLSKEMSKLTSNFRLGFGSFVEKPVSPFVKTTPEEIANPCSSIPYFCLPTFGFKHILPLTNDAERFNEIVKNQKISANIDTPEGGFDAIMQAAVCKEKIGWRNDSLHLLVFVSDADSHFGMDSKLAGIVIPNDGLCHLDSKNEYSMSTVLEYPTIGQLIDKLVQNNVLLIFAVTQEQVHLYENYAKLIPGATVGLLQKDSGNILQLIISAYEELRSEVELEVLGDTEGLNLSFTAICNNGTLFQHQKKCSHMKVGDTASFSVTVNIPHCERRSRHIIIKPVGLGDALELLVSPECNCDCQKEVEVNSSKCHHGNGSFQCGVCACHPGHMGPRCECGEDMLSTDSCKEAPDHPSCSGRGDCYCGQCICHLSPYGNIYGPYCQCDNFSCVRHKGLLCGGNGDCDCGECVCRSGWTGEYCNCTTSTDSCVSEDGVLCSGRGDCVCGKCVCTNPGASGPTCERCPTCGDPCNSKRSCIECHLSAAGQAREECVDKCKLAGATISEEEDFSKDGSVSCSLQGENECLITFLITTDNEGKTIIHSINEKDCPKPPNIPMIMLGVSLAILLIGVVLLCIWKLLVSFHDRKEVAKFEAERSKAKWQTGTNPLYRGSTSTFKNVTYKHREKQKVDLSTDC
Sequence of Integrin alpha-V/beta-3 (P05106 27-788 limits assumed): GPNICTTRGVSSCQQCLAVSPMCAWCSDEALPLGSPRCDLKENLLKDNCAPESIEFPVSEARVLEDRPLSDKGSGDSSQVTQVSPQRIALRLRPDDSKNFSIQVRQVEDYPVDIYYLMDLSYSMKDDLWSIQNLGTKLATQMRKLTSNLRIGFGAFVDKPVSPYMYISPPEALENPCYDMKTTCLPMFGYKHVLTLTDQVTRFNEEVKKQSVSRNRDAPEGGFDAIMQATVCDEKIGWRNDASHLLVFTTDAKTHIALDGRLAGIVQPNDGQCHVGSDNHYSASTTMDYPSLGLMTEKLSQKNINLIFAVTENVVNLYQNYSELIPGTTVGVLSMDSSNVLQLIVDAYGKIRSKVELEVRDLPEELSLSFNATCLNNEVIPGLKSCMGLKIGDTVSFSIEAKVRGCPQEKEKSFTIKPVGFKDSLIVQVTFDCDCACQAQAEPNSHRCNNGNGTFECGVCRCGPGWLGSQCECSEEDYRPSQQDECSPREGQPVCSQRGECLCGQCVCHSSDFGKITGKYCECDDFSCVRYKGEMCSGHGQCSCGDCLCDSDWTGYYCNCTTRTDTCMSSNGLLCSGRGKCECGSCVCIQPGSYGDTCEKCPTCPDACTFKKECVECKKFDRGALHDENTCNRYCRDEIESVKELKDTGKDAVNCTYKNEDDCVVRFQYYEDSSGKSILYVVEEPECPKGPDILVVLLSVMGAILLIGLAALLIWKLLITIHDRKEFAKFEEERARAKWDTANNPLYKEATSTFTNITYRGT
Sequence of Integrin alpha-V/beta-3 (P06756 31-889 limits assumed): as the sequence (P06756 31-889 limits assumed) above
Sequence of Integrin alpha-V/beta-3 (P06756 891-1048 limits assumed): as the sequence (P06756 891-1048 limits assumed) above

SMILES	IC50 [3]	IC50 [4]	Ratio IC50 [5]	also measured
CC(C)C[C@H](NC(=O)[C@H](CO)NC(=O)[C@H](CC(=O)O)NC(=O)[C@H](CC(C)C)NC(=O)[C@H](CC(=O)O)NC(=O)[C@@H](NC(=O)[C@@H](N)CCCNC(=N)N)[C@@H](C)O)C(=O)N[C@@H](CCCNC(=N)N)C(=O)N[C@H](C(=O)O)[C@@H](C)O	–	–	–	metabolised at 0.25 h, 1000 µM [1]: 56%; metabolised at 1 h, 1000 µM [2]: 100%
CC(C)C[C@@H]1NC(=O)[C@H](CC(=O)O)NC(=O)CNC(=O)[C@H](CCCNC(=N)N)NC(=O)[C@H](Cc2c[nH]c3ccccc23)NC(=O)[C@H](C)NC(=O)[C@@H]2CCCN2C(=O)[C@H]2CCCN2C1=O	73 nM	3.73 nM	20.1	–
CC(C)C[C@@H]1NC(=O)[C@H](CC(=O)O)NC(=O)CNC(=O)[C@H](CCCNC(=N)N)NC(=O)[C@H](C)NC(=O)[C@@H]2CCCN2C(=O)[C@H]2CCCN2C(=O)[C@H](Cc2ccccc2)NC(=O)[C@H](C)NC1=O (cyclo(ARGDLAF[dP]P))	–	–	–	IC50 [6]: > 1000 nM; IC50 [7]: > 1000 nM
CC(C)C[C@@H]1NC(=O)[C@H](CC(=O)O)NC(=O)[C@H](CO)NC(=O)[C@H](CCCNC(=N)N)NC(=O)[C@H](Cc2ccccc2)NC(=O)[C@H](C)NC(=O)[C@@H]2CCCN2C(=O)[C@H]2CCCN2C1=O	369 nM	5.8 nM	64	–
CC[C@H](C)[C@@H]1NC(=O)[C@H](C)NC(=O)[C@@H]2CCCN2C(=O)[C@H]2CCCN2C(=O)[C@H](CC(C)C)NC(=O)[C@H](CC(=O)O)NC(=O)CNC(=O)[C@H](CCCNC(=N)N)NC1=O	40.2 nM	1.54 nM	26.1	–
CC(C)C[C@@H]1NC(=O)[C@H](C)NC(=O)[C@H](Cc2ccccc2)N(C)C(=O)[C@H]2CCCN2C(=O)[C@H](CC(C)C)NC(=O)[C@H](CC(=O)O)NC(=O)CNC(=O)[C@H](CCCNC(=N)N)NC1=O	74 nM	25 nM	3	–
CC(C)C[C@@H]1NC(=O)[C@H](C)NC(=O)[C@@H]2CCCN2C(=O)[C@H]2CCCN2C(=O)[C@H](CC(C)C)NC(=O)[C@H](CC(=O)O)NC(=O)CNC(=O)[C@H](CCCNC(=N)N)NC(=O)[C@H](C)NC(=O)[C@H](C)NC1=O	430 nM	270 nM	1.6	–
CC(C)C[C@@H]1NC(=O)[C@H](CC(=O)O)NC(=O)CNC(=O)[C@H](CCCNC(=N)N)NC(=O)[C@H](Cc2ccccc2)NC(=O)[C@H](CCCCN)N(C)C(=O)[C@H]2CCCN2C(=O)[C@H](Cc2ccccc2)NC(=O)[C@H](C)NC1=O	–	–	–	IC50 [6]: > 1000 nM; IC50 [7]: > 1000 nM
CC(C)C[C@@H]1NC(=O)[C@H](C)NC(=O)[C@H](C(C)C)N(C)C(=O)[C@H]2CCCN2C(=O)[C@H](CC(C)C)NC(=O)[C@H](CC(=O)O)NC(=O)CNC(=O)[C@H](CCCNC(=N)N)NC1=O	70 nM	44 nM	1.6	–
CC(C)C[C@@H]1NC(=O)[C@H](CC(=O)O)NC(=O)CNC(=O)[C@H](CCCNC(=N)N)NC(=O)[C@H](c2ccccc2)NC(=O)[C@H](C)NC(=O)[C@@H]2CCCN2C(=O)[C@H]2CCCN2C1=O	29.6 nM	6.4 nM	4.6	–
CC(C)C[C@@H]1NC(=O)[C@H](C)NC(=O)[C@H](CCCCN)N(C)C(=O)[C@H]2CCCN2C(=O)[C@H](CC(C)C)NC(=O)[C@H](CC(=O)O)NC(=O)CNC(=O)[C@H](CCCNC(=N)N)NC1=O	62 nM	44 nM	1.4	–
CC(=O)NC1C[C@H]2C(=O)NCC(=O)N[C@@H](CC(C)C)C(=O)N[C@@H](CCCNC(=N)N)C(=O)NCC(=O)N[C@@H](CC(=O)O)C(=O)N[C@@H](CC(C)C)C(=O)N3CCC[C@@H]3C(=O)N2C1 (stereo partly specified)	223 nM	10.5 nM	21	–
CC(C)C[C@@H]1NC(=O)[C@H](CC(=O)O)NC(=O)CNC(=O)[C@H](CCCNC(=N)N)NC(=O)[C@H](Cc2ccccc2)NC(=O)[C@H](C)NC(=O)[C@@H]2CCCN2C(=O)[C@H]2CCCN2C1=O	81.3 nM	1.83 nM	44.1	–
CC(C)C[C@@H]1NC(=O)[C@H](C)NC(=O)[C@@H]2CCCN2C(=O)[C@@H](CCCCN)N(C)C(=O)[C@H](CC(C)C)NC(=O)[C@H](CC(=O)O)NC(=O)CNC(=O)[C@H](CCCNC(=N)N)NC1=O	39 nM	12.1 nM	3.2	–
CC[C@H](C)[C@@H]1NC(=O)[C@H](CC(=O)O)NC(=O)CNC(=O)[C@H](CCCNC(=N)N)NC(=O)[C@H](Cc2ccccc2)NC(=O)[C@H](C)NC(=O)[C@@H]2CCCN2C(=O)[C@H]2CCCN2C1=O	707 nM	169 nM	4.2	–
CCCC[C@@H]1NC(=O)[C@H](CC(=O)O)NC(=O)CNC(=O)[C@H](CCCNC(=N)N)NC(=O)[C@H](Cc2ccccc2)NC(=O)[C@H](C)NC(=O)[C@@H]2CCCN2C(=O)[C@H]2CCCN2C1=O	142 nM	38.1 nM	3.7	–
CC(C)C[C@@H]1NC(=O)CNC(=O)[C@@H]2CCCN2C(=O)[C@H]2CCCN2C(=O)[C@H](CC(C)C)NC(=O)[C@H](CC(=O)O)NC(=O)CNC(=O)[C@H](CCCNC(=N)N)NC1=O (cyclo(RGDL[dP]PGL))	160 nM	4.5 nM	36	IC50 [8]: > 1000 nM; IC50 [6]: > 1000 nM; IC50 [9]: > 1000 nM; IC50 [7]: > 1000 nM
CC(C)C[C@@H]1NC(=O)[C@H](C)NC(=O)[C@H](C)NC(=O)[C@@H]2CCCN2C(=O)[C@H]2CCCN2C(=O)[C@H](CC(C)C)NC(=O)[C@H](CC(=O)O)NC(=O)CNC(=O)[C@H](CCCNC(=N)N)NC(=O)[C@H](C)NC1=O	140 nM	47.4 nM	2.9	–
CC(C)C[C@@H]1NC(=O)[C@H](CC(=O)O)NC(=O)CNC(=O)[C@H](CCCNC(=N)N)NC(=O)[C@H](C)NC(=O)[C@H](C)NC(=O)[C@H](C)NC(=O)[C@H](C)NC(=O)[C@@H]2CCCN2C(=O)[C@H]2CCCN2C1=O	274 nM	166 nM	1.7	–
CC1=CC(C)=[N+]2C1=Cc1ccc(CCC(=O)NCCCCCC(=O)NCCCC[C@@H]3NC(=O)[C@@H](Cc4ccccc4)NC(=O)[C@H](CC(=O)O)NC(=O)CCNC(=O)[C@H](CCCNC(=N)N)NC3=O)n1[B-]2(F)F	–	–	–	Activity [10]: inactive; Activity [11]: inactive; Activity [12]: inactive
CC1=CC(C)=[N+]2C1=Cc1ccc(CCC(=O)NCCCCCC(=O)NCCCC[C@H]3C(=O)NCC(=O)N[C@@H](CC(C)C)C(=O)N[C@@H](CCCNC(=N)N)C(=O)NCC(=O)N[C@@H](CC(=O)O)C(=O)N[C@@H](CC(C)C)C(=O)N4CCC[C@@H]4C(=O)N3C)n1[B-]2(F)F (cyclo(RGDL[dP][NMeK]([Ahx-BODIPY(FL)])GL))	47 nM	0.06 nM	–	IC50 [8]: 43 nM; IC50 [6]: > 1000 nM; IC50 [9]: 689 nM; IC50 [7]: > 1000 nM; Activity [13]: Active; Activity [10]: Active; Activity [11]: Active; Activity [12]: Active; Activity [14]: inactive; Activity [15]: 50%; Activity [16]: inactive; Activity [17]: inactive
CC(=O)NCCCC[C@H]1C(=O)NCC(=O)N[C@@H](CC(C)C)C(=O)N[C@@H](CCCNC(=N)N)C(=O)NCC(=O)N[C@@H](CC(=O)O)C(=O)N[C@@H](CC(C)C)C(=O)N2CCC[C@@H]2C(=O)N1C (cyclo(RGDL[dP][NMeK](Ac)GL))	99 nM	8 nM	12	IC50 [8]: 343 nM; IC50 [6]: > 1000 nM; IC50 [9]: > 1000 nM; IC50 [7]: > 1000 nM; Stability [18]: Stable
CC(C)C[C@@H]1NC(=O)[C@H](CC(=O)O)NC(=O)CNC(=O)[C@H](CCCNC(=N)N)NC(=O)[C@@H](C)NC(=O)[C@H](C)NC(=O)[C@@H]2CCCN2C(=O)[C@H]2CCCN2C1=O	112 nM	59.4 nM	1.9	–
